GI50 and TGI data for 32 compounds are collected here from PubChem BioAssay (NCI).

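96-well plates; 48 h exposure; 5 concentrations. Endpoints by linear interpolation between flanking doses. Not reached: highest tested concentration assigned. GI50 is the concentration that inhibits growth by half. At the TGI there is no net growth.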

This assay relates to MDA-MB-468 breast. Description: inhibition of tumour cell growth, NCI panel, 48 h.
On to `CC12CCC3C(CC=C4CC(O)CCC43C)C1C/C(=C\N1CCCC1)C2=O` (stereo not drawn), for which the GI50 was 51.2 µM and the TGI was greater than 100 µM. Turning to `N#Cc1c(C(=O)c2ccccc2)cnn1-c1ccccc1`, the GI50 is greater than 25 µM and the TGI is greater than 25 µM. On to `Cc1ccc(C(=O)Nc2ccc(CN3CCN(C)CC3)c(C(F)(F)F)c2)cc1C#Cc1cnc(N)cc1C#N`, for which the GI50 was 0.399 µM and the TGI was 1.23 µM. For `OCc1cn(Cc2cccc(Cl)c2)c2ccccc12`, the GI50 was 0.0134 µM and the TGI worked out at 0.0333 µM. In the case of `C=C1[C@@H](C)[C@H]2[C@H](Cc3ccccc3)NC(=O)[C@]23OC(=O)/C=C/[C@H](O)CCC[C@@H](C)C/C=C/[C@H]3[C@@H]1O`, the GI50 is 1.86 µM and the TGI is greater than 100 µM. In the case of `CCN(CC)c1ccc(/C=C\c2cc(C)c3cc(C)ccc3n2)cc1`, the GI50 was 3.02 µM and the TGI came out at 20.3 µM. In the case of `CC(C)Oc1cc2c(cc1O)CC[C@@H]1[C@@H]2CC[C@]2(C)[C@@H](O)CC[C@@H]12`, the GI50 is 4.16 µM and the TGI is 25.6 µM. For `O=C(/C=C/c1cccnc1)NCCCCC1CCN(C(=O)c2ccccc2)CC1`, in that order: 27.5 µM and greater than 100 µM. Regarding `CCN(Cc1cccc(OC)c1)c1ccc(CO)c(Cl)c1`, the GI50 is 0.0174 µM and the TGI stood at 0.0456 µM. Compound `COc1ccccc1-[n+]1cc(-c2ccc(-c3ccccc3)cc2)n2c1CCCCC2` had a TGI of 0.838 µM. As to `CC1=C([Se]CC(OC(=O)CC[Se]c2ccccc2)C(=O)NCCCCCC(=O)OCc2ccccc2)C(=O)c2ccccc2C1=O` (stereo not drawn), the GI50 is 1.93 µM and the TGI turned out to be 4.63 µM.

Consider `COc1ccc(-c2cc(-c3ccc(OC)c(OC)c3)nc(SCCCC(=O)NO)n2)cc1`, for which the GI50 is 1.18 µM and the TGI worked out at 3.44 µM.

For the compound `N[C@@H](Cc1c[nH]c2ccccc12)C(=O)NC1CCN(C(=O)c2c[nH]c3ccccc23)CC1`, the GI50 is 54.2 µM and the TGI was greater than 100 µM. For `C[C@]12CCC3[C@@H](C[C@@H]4SC(Nc5ccccc5)=N[C@@]45CC(=O)CC[C@]35C)[C@@H]1CCC2=O` (stereo partly drawn), in that order: 3.59 µM and 14.6 µM.

In the case of `NC(=O)c1cnc(N[C@@H]2CCCC[C@@H]2N)nc1Nc1cccc(-n2nccn2)c1`, the GI50 is 3.27 µM and the TGI is 11.5 µM. Turning to `Oc1ccc(Cc2ccc(O)c3ncccc23)c2cccnc12`, the GI50 is 0.278 µM and the TGI is 0.902 µM. For `C(=N\Nc1ccccn1)/c1ccccn1`, in that order: 0.237 µM and 0.748 µM. For `Oc1ccc(/C=N\Nc2ccccn2)c(O)c1`, in that order: 2.43 µM and 8.56 µM. With `CN(C)CCCn1c2c(c3cnccc3c1=O)C(=O)c1ccccc1-2`, the GI50 was 0.352 µM and the TGI was found to be 2.54 µM.

Consider `c1ccc(Cc2nc3ccc(Nc4ncnc5ccccc45)cc3[nH]2)cc1`, for which the GI50 was 6.65 µM and the TGI was 24.3 µM. With `Cc1cn(C2CC(F)C(CO)O2)c(=O)[nH]c1=O` (stereo not drawn), the GI50 was greater than 100 µM and the TGI was greater than 100 µM. On to `C#Cc1cccc(Nc2ncnc3cc(OCCOC)c(OCCOC)cc23)c1`, for which the GI50 is 0.124 µM and the TGI stood at 2.81 µM. Turning to `CC(=O)OC[C@H]1O[C@@H](n2ccc(=O)[nH]c2=O)[C@H](OC(C)=O)[C@@H]1OC(C)=O`, the GI50 is greater than 100 µM and the TGI is greater than 100 µM.

For the compound `Cc1ccc(C(CN(C)C)C(=O)c2ccccc2)cc1` (stereo not drawn), the GI50 is 1.32 µM and the TGI was found to be 3.61 µM. For `C1CC[N-]CC1.C1CC[N-]CC1.C1CC[N-]CC1.C1CC[N-]CC1.[Cl][Rh][Cl]`, in that order: 2.17 µM and 15.3 µM. In the case of `CCCCn1c2cc(OCc3cn(-c4ccc(Cl)cc4)nn3)ccc2c2ccnc(C)c21`, the GI50 is 5.23 µM and the TGI is greater than 33.3 µM. Take `C=C1C(=O)O[C@H]2[C@H]1CC/C(COC(=O)NCc1cc3ccccc3[nH]1)=C\CC[C@@]1(C)O[C@@H]21`: the GI50 is 1.06 µM and the TGI came to 3.4 µM. On to `Cc1c(C#N)cccc1-c1cc(-c2cn(Cc3cccc(C(C)(C)O)n3)nn2)nc(N)n1`, for which the GI50 was 7.58 µM and the TGI stood at 55.6 µM. With `CC(C)(C)N1CCC1C(N)=O` (stereo not drawn), the GI50 was greater than 100 µM and the TGI is greater than 100 µM. Take `COc1ccc(/C=C/C(=O)c2cc3c(N)c(C(=O)Nc4ccccc4Cl)sc3nc2C)cc1`: the GI50 was 0.279 µM and the TGI came to 4.1 µM. With `COc1ccc(-n2c(SCc3cc(OC)c(OC)c(OC)c3)nc3ccc(C)cc3c2=O)c(OC)c1`, the GI50 was 3.16 µM and the TGI stood at 9.38 µM. For `COCCn1cc(-c2csc(-c3c[nH]c4ccccc34)n2)c2cccnc21`, in that order: 0.974 µM and 6.68 µM.
